Experiments:
Test in all cases: Caliper, Mobility shift assay off-chip
MAPK1 (human) = MAPK1 (human) (UniProt P28482)
MELK (human) = MELK (human) (UniProt Q14680)
TSSK2 (human) = TSSK2 (human) (UniProt Q96PF2)
DYRK2 (human) = DYRK2 (human) (UniProt Q92630)
DDR2 (human) = DDR2 (human) (UniProt Q16832)
MAP2K6 (human) = MAP2K6 (human) (UniProt P52564)
STK10 (human) = STK10 (human) (UniProt O94804)
DAPK2 (human) = DAPK2 (human) (UniProt Q9UIK4)
[1] = tested on: FLT3 (human), P36888 [D835Y]
RET (human) = RET (human) (UniProt P07949)
CHUK (human) = CHUK (human) (UniProt O15111)
JAK3 JH1 JH2 (human) = JAK3 JH1 JH2 (human) (UniProt P52333)
SYK (human) = SYK (human) (UniProt P43405)
INSR (human) = INSR (human) (UniProt P06213)
CDK6 CCND3 (human) = CDK6 CCND3 (human) (UniProt Q00534+P30281)
PAK6 (human) = PAK6 (human) (UniProt Q9NQU5)
FYN (human) = FYN (human) (UniProt P06241)
CAMK4 (human) = CAMK4 (human) (UniProt Q16566)
[2] = tested on: ABL1 (human), P00519 [T315I]
CHEK2 (human) = CHEK2 (human) (UniProt O96017)
RPS6KA3 KD1 KD2 (human) = RPS6KA3 KD1 KD2 (human) (UniProt P51812)
HIPK2 (human) = HIPK2 (human) (UniProt Q9H2X6)
MST1R (human) = MST1R (human) (UniProt Q04912)
BMX (human) = BMX (human) (UniProt P51813)
MKNK2 (human) = MKNK2 (human) (UniProt Q9HBH9)
FRK (human) = FRK (human) (UniProt P42685)
VRK2 (human) = VRK2 (human) (UniProt Q86Y07)
MYLK3 (human) = MYLK3 (human) (UniProt Q32MK0)
CAMK1D (human) = CAMK1D (human) (UniProt Q8IU85)
CSNK1G2 (human) = CSNK1G2 (human) (UniProt P78368)
STK24 (human) = STK24 (human) (UniProt Q9Y6E0)
GCK (human) = GCK (human) (UniProt Q12851)
GSG2 (human) = GSG2 (human) (UniProt Q8TF76)
[3] = tested on: KIT (human), P10721 [V654A]
[4] = tested on: EGFR (human), P00533 [T790M/L858R]
GRK5 (human) = GRK5 (human) (UniProt P34947)
TAOK2 (human) = TAOK2 (human) (UniProt Q9UL54)
PAK7 (human) = PAK7 (human) (UniProt Q9P286)
CSNK1G3 (human) = CSNK1G3 (human) (UniProt Q9Y6M4)
TLK2 (human) = TLK2 (human) (UniProt Q86UE8)
PAK3 (human) = PAK3 (human) (UniProt O75914)

Sequence of DAPK2 (human) (Q9UIK4 whole entry, looked up): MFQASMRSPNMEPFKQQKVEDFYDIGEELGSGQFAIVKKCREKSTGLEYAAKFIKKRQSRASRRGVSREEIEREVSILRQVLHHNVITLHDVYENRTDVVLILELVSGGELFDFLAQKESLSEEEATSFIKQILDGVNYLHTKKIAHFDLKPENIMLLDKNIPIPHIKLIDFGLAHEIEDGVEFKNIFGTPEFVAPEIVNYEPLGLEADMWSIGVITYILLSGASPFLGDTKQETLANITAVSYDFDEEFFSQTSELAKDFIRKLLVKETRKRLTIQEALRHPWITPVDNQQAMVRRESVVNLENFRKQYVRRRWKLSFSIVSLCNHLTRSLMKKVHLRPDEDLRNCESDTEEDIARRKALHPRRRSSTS
Sequence of CHEK2 (human) (O96017 whole entry, looked up): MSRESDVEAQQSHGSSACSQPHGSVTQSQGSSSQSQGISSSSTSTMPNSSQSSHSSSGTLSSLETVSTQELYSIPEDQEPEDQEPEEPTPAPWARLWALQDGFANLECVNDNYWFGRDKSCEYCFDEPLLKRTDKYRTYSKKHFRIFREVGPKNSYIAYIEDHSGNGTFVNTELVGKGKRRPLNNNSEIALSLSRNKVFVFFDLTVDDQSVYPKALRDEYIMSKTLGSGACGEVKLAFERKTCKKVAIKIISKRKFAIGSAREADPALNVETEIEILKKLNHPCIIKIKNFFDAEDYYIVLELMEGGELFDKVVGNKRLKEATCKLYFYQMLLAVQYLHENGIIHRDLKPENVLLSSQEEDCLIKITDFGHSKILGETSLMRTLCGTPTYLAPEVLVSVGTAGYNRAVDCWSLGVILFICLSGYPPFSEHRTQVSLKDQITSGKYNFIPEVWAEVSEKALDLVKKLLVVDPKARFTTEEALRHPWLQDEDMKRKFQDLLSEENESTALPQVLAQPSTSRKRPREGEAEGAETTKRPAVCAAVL
Sequence of INSR (human) (P06213 whole entry, looked up): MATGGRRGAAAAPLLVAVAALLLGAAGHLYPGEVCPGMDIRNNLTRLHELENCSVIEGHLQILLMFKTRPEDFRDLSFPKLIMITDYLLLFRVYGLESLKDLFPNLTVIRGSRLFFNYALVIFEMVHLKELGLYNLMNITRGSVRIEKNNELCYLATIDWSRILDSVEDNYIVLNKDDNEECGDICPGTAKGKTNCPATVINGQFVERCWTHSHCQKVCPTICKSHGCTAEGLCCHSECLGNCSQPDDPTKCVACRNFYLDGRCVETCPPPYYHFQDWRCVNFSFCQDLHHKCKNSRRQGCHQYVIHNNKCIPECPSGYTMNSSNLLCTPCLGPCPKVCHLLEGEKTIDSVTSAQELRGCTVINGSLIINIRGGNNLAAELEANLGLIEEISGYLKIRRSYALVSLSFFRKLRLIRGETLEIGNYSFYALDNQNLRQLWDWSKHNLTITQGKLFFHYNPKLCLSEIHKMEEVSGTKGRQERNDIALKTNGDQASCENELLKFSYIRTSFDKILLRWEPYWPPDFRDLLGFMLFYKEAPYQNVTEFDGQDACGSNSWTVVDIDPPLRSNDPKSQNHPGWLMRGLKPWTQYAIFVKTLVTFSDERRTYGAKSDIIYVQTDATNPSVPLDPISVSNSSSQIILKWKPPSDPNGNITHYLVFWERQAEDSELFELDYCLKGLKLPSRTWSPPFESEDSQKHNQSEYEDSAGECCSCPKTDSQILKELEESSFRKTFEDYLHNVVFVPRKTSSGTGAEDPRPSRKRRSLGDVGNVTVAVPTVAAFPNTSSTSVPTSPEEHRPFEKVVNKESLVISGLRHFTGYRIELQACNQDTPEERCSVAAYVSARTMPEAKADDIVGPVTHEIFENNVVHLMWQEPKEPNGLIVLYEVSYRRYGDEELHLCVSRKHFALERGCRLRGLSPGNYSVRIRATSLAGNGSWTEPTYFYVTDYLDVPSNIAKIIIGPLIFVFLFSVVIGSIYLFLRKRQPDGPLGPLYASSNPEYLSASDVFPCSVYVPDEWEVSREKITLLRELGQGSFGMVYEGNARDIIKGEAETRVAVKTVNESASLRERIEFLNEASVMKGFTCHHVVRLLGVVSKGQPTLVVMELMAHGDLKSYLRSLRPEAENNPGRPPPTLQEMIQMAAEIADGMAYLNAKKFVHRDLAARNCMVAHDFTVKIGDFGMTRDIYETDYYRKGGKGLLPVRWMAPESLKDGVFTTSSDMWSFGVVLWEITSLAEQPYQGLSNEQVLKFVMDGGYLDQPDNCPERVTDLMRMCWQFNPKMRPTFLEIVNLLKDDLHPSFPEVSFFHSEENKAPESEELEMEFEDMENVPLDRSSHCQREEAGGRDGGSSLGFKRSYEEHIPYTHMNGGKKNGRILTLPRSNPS
Sequence of DDR2 (human) (Q16832 whole entry, looked up): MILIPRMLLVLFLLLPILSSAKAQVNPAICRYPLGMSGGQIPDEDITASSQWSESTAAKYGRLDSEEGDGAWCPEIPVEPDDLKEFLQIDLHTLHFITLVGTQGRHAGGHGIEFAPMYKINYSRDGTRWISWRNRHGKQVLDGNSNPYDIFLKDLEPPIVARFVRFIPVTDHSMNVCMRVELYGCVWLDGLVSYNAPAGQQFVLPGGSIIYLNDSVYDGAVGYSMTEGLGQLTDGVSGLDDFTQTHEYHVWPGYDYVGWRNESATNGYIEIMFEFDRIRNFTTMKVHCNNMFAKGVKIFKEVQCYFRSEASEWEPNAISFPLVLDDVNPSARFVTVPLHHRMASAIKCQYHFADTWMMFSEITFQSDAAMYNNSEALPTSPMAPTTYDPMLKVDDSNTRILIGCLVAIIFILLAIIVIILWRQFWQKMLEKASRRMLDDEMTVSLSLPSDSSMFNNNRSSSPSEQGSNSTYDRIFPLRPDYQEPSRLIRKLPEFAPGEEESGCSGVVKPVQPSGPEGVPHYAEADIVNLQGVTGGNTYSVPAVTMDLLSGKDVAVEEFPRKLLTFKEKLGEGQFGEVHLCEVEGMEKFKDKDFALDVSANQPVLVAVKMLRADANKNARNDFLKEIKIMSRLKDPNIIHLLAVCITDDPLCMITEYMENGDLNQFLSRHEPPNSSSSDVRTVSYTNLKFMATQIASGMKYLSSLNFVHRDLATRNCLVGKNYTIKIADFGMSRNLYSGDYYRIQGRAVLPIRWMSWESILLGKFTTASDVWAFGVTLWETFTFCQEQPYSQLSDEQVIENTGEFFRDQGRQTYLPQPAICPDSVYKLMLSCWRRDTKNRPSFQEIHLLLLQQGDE
Sequence of MST1R (human) (Q04912 whole entry, looked up): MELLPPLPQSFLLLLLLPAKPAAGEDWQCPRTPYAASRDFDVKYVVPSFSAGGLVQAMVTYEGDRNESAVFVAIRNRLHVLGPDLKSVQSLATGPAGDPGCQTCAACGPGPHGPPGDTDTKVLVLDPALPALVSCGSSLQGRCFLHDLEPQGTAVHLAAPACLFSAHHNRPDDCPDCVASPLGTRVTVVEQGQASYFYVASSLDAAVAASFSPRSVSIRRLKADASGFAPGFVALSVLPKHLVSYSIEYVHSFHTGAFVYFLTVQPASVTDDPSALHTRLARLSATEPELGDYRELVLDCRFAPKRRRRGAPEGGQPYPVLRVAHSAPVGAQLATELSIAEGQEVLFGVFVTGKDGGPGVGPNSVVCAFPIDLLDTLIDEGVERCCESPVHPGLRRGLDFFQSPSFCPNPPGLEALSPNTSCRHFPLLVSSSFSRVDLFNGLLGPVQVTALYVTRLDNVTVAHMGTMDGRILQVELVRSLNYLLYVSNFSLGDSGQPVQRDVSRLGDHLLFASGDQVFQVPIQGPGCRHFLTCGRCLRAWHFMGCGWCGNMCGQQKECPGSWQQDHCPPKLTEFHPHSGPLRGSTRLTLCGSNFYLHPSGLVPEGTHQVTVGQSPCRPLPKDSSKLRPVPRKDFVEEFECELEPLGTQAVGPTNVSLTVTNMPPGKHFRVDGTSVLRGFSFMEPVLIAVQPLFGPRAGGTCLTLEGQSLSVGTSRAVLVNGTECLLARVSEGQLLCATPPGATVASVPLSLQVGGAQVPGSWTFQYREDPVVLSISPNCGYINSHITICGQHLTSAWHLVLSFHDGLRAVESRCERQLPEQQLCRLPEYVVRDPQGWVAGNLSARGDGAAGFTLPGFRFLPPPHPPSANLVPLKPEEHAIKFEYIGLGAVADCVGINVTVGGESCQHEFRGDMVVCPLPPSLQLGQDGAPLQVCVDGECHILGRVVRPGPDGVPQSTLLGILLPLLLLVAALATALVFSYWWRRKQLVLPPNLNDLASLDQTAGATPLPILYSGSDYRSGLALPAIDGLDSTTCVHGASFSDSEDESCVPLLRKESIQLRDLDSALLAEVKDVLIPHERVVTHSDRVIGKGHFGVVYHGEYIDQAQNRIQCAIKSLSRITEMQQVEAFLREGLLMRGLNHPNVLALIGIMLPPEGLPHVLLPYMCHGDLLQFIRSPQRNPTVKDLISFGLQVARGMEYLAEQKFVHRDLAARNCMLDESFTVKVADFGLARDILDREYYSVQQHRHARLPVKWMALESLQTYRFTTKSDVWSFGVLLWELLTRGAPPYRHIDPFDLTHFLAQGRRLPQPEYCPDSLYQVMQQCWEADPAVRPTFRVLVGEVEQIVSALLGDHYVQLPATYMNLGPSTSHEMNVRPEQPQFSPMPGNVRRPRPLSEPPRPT
Sequence of MAPK1 (human) (P28482 whole entry, looked up): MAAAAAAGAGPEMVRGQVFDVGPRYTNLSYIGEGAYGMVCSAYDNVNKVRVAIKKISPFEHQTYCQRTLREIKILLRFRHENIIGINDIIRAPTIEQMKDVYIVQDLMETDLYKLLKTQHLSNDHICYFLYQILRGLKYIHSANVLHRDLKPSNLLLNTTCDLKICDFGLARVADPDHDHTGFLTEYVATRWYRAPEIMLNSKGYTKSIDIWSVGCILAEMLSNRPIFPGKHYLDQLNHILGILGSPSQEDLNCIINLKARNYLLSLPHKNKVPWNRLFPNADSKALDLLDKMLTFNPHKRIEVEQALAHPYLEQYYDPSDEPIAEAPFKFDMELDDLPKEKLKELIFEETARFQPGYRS

## CC(C)(C)c1nc2c3ccc(F)cc3c3c(=O)[nH]ccc3c2[nH]1
MAPK1 (human); compound 10.0 µM
  residual activity: 33%
MELK (human); compound 10.0 µM
  residual activity: 6%

## Cc1n[nH]c2c1c(=O)n(CCCN)c1ccc(Cl)cc21
TSSK2 (human); compound 1.0 µM
  residual activity: 56%
DYRK2 (human); compound 1.0 µM
  residual activity: 99%
DDR2 (human); compound 1.0 µM
  residual activity: 107%
MAP2K6 (human); compound 1.0 µM
  residual activity: 106%
STK10 (human); compound 1.0 µM
  residual activity: 81%
DAPK2 (human); compound 1.0 µM
  residual activity: 90%
[1]; compound 1.0 µM
  residual activity: 5%
RET (human); compound 1.0 µM
  residual activity: 37%
CHUK (human); compound 1.0 µM
  residual activity: 96%
JAK3 JH1 JH2 (human); compound 1.0 µM
  residual activity: 100%
SYK (human); compound 1.0 µM
  residual activity: 65%
INSR (human); compound 1.0 µM
  residual activity: 103%
CDK6 CCND3 (human); compound 1.0 µM
  residual activity: 106%
PAK6 (human); compound 1.0 µM
  residual activity: 31%
FYN (human); compound 1.0 µM
  residual activity: 71%
CAMK4 (human); compound 1.0 µM
  residual activity: 61%
[2]; compound 1.0 µM
  residual activity: 86%
CHEK2 (human); compound 1.0 µM
  residual activity: 5%
RPS6KA3 KD1 KD2 (human); compound 1.0 µM
  residual activity: 2%
HIPK2 (human); compound 1.0 µM
  residual activity: 105%
MST1R (human); compound 1.0 µM
  residual activity: 107%
BMX (human); compound 1.0 µM
  residual activity: 94%
MKNK2 (human); compound 1.0 µM
  residual activity: 86%

## O=C(NCCCNc1nc(Nc2cccc(NC(=O)N3CCCC3)c2)ncc1I)c1cccs1
TSSK2 (human); compound 1.0 µM
  residual activity: 52%
DYRK2 (human); compound 1.0 µM
  residual activity: 97%
DDR2 (human); compound 1.0 µM
  residual activity: 113%
MAP2K6 (human); compound 1.0 µM
  residual activity: 108%
FRK (human); compound 1.0 µM
  residual activity: 93%
STK10 (human); compound 1.0 µM
  residual activity: 87%
VRK2 (human); compound 1.0 µM
  residual activity: 117%
MYLK3 (human); compound 1.0 µM
  residual activity: 107%
DAPK2 (human); compound 1.0 µM
  residual activity: 100%
[1]; compound 1.0 µM
  residual activity: 2%
CAMK1D (human); compound 1.0 µM
  residual activity: 86%
RET (human); compound 1.0 µM
  residual activity: 30%
CSNK1G2 (human); compound 1.0 µM
  residual activity: 89%
CHUK (human); compound 1.0 µM
  residual activity: 120%
STK24 (human); compound 1.0 µM
  residual activity: 195%
JAK3 JH1 JH2 (human); compound 1.0 µM
  residual activity: 2%
SYK (human); compound 1.0 µM
  residual activity: 66%
INSR (human); compound 1.0 µM
  residual activity: 91%
MAPK1 (human); compound 1.0 µM
  residual activity: 104%
CDK6 CCND3 (human); compound 1.0 µM
  residual activity: 86%
PAK6 (human); compound 1.0 µM
  residual activity: 145%
FYN (human); compound 1.0 µM
  residual activity: 98%
GCK (human); compound 1.0 µM
  residual activity: 13%
GSG2 (human); compound 1.0 µM
  residual activity: 87%
[3]; compound 1.0 µM
  residual activity: 73%
CAMK4 (human); compound 1.0 µM
  residual activity: 102%
[2]; compound 1.0 µM
  residual activity: 113%
CHEK2 (human); compound 1.0 µM
  residual activity: 60%
RPS6KA3 KD1 KD2 (human); compound 1.0 µM
  residual activity: 118%
HIPK2 (human); compound 1.0 µM
  residual activity: 93%
[4]; compound 1.0 µM
  residual activity: 103%
MST1R (human); compound 1.0 µM
  residual activity: 105%
MELK (human); compound 1.0 µM
  residual activity: 53%
GRK5 (human); compound 1.0 µM
  residual activity: 109%
TAOK2 (human); compound 1.0 µM
  residual activity: 37%
PAK7 (human); compound 1.0 µM
  residual activity: 115%
BMX (human); compound 1.0 µM
  residual activity: 94%
CSNK1G3 (human); compound 1.0 µM
  residual activity: 87%
MKNK2 (human); compound 1.0 µM
  residual activity: 121%
TLK2 (human); compound 1.0 µM
  residual activity: 91%
PAK3 (human); compound 1.0 µM
  residual activity: 106%

## COc1ccc(C#Cc2ccc3ncc4ncn(-c5ccc(CCN)cc5)c4c3c2)cc1
TSSK2 (human); compound 10.0 µM
  residual activity: 72%
DYRK2 (human); compound 10.0 µM
  residual activity: 86%
DDR2 (human); compound 10.0 µM
  residual activity: 57%
MAP2K6 (human); compound 10.0 µM
  residual activity: 33%
FRK (human); compound 10.0 µM
  residual activity: 90%
STK10 (human); compound 10.0 µM
  residual activity: 18%
VRK2 (human); compound 10.0 µM
  residual activity: 115%
MYLK3 (human); compound 10.0 µM
  residual activity: 29%
DAPK2 (human); compound 10.0 µM
  residual activity: 85%
[1]; compound 10.0 µM
  residual activity: 10%
CAMK1D (human); compound 10.0 µM
  residual activity: 47%
RET (human); compound 10.0 µM
  residual activity: 9%
CSNK1G2 (human); compound 10.0 µM
  residual activity: 39%
CHUK (human); compound 10.0 µM
  residual activity: 36%
STK24 (human); compound 10.0 µM
  residual activity: 106%
JAK3 JH1 JH2 (human); compound 10.0 µM
  residual activity: 55%
SYK (human); compound 10.0 µM
  residual activity: 33%
INSR (human); compound 10.0 µM
  residual activity: 95%
MAPK1 (human); compound 10.0 µM
  residual activity: 133%
CDK6 CCND3 (human); compound 10.0 µM
  residual activity: 103%
PAK6 (human); compound 10.0 µM
  residual activity: 112%
FYN (human); compound 10.0 µM
  residual activity: 114%
GCK (human); compound 10.0 µM
  residual activity: 17%
GSG2 (human); compound 10.0 µM
  residual activity: 0%
[3]; compound 10.0 µM
  residual activity: 34%
CAMK4 (human); compound 10.0 µM
  residual activity: 69%
[2]; compound 10.0 µM
  residual activity: 62%
CHEK2 (human); compound 10.0 µM
  residual activity: 5%
RPS6KA3 KD1 KD2 (human); compound 10.0 µM
  residual activity: 24%
HIPK2 (human); compound 10.0 µM
  residual activity: 63%
[4]; compound 10.0 µM
  residual activity: 68%
MST1R (human); compound 10.0 µM
  residual activity: 106%
MELK (human); compound 10.0 µM
  residual activity: 13%
GRK5 (human); compound 10.0 µM
  residual activity: 114%
TAOK2 (human); compound 10.0 µM
  residual activity: 81%
PAK7 (human); compound 10.0 µM
  residual activity: 121%
BMX (human); compound 10.0 µM
  residual activity: 25%
CSNK1G3 (human); compound 10.0 µM
  residual activity: 2%
MKNK2 (human); compound 10.0 µM
  residual activity: 120%
TLK2 (human); compound 10.0 µM
  residual activity: 106%
PAK3 (human); compound 10.0 µM
  residual activity: 38%

— the kinase profiling compilation of Christmann-Franck et al. (2016)
